Test results published in patent US20090069336A1, “PYRIMIDOTHIOPHENE COMPOUNDS” (VERNALIS (CAMBRIDGE) LIMITED., priority 2004, published 2009).

biological target: T1, human full-length HSP90 (Homo sapiens, UniProt P08238); assay: Fluorescence polarization assay (competitive displacement of probe RBT0051001-FAM from HSP90); type: binding; conditions: Table 1; read-out: Hsp90 FP IC50
T1 construct: E. coli expressed human full-length HSP90 protein, purified >95%; made in house; host or cells: E. coli
Source text: Fluorescence Polarization Assay
Fluorescence polarization {also known as fluorescence anisotropy} measures the rotation of a fluorescing species in solution, where the larger molecule the more polarized the fluorescence emission. When the fluorophore is excited with polarized light, the emitted light is also polarized. The molecular size is proportional to the polarization of the fluorescence emission.
The fluoroscein-labelled probe —RBT0051001-FAM—
binds to HSP90 {full-length human, full-length yeast or N-terminal domain HSP90} and the anisotropy {rotation of the probe:protein complex} is measured.
Test compound is added to the assay plate, left to equilibrate and the anisotropy measured again. Any change in anisotropy is due to competitive binding of compound to HSP90, thereby releasing probe.
Chemicals are of the highest purity commercially available and all aqueous solutions are made up in AR water. • 1) Costar 96-well black assay plate #3915 • 2) Assay buffer of (a) 100 mM Tris pH7.4; (b) 20 mM KCl; (c) 6 mM MgCl2. Stored at room temperature. • 3) BSA (bovine serum albumen) 10 mg/ml (New England Biolabs # B9001S) • 4) 20 mM probe in 100% DMSO stock concentration. Stored in the dark at RT. Working concentration is 200 nM diluted in AR water and stored at 4° C. Final concentration in assay 80 nM. • 5) E. coli expressed human full-length HSP90 protein, purified >95% (see, e.g., Panaretou et al., 1998) and stored in 50 μL aliquots at −80° C.
• 1) Add 100 μl 1× buffer to wells 11A and 12A (=FP BLNK) • 2) Prepare assay mix—all reagents are kept on ice with a lid on the bucket as the probe is light-sensitive.
• 3) Aliquot 100 μl assay mix to all other wells • 4) Seal plate and leave in dark at room temp for 20 minutes to equilibrate Compound Dilution Plate—1×3 dilution series • 1) In a clear 96-well v-bottom plate-{# VWR 007/008/257} add 10 μl 100% DMSO to wells B1 to H11 • 2) To wells A1 to A11 add 17.5 μl 100% DMSO • 3) Add 2.5 μl cpd to A1. This gives 2.5 mM {50×} stock cpd-assuming cpds 20 mM. • 4) Repeat for wells A2 to A10. Control in columns 11 and 12. • 5) Transfer 5 μl from row A to row B—not column 12. Mix well. • 6) Transfer 5 μl from row B to row C. […] In column 11 {provides standard curve} only add compound B11-H11. Add 2 μl of 100 mM standard cpd to wells B12-H12 {is positive control} • 13) The Z′ factor is calculated from zero controls and positive wells. It typically gives a value of 0.7-0.9.
The compounds tested in the above assay were assigned to one of two activity ranges, namely A=<10 μM; B=>10 μM, and those assignments are reported above.

T1 sequence (P08238 whole entry): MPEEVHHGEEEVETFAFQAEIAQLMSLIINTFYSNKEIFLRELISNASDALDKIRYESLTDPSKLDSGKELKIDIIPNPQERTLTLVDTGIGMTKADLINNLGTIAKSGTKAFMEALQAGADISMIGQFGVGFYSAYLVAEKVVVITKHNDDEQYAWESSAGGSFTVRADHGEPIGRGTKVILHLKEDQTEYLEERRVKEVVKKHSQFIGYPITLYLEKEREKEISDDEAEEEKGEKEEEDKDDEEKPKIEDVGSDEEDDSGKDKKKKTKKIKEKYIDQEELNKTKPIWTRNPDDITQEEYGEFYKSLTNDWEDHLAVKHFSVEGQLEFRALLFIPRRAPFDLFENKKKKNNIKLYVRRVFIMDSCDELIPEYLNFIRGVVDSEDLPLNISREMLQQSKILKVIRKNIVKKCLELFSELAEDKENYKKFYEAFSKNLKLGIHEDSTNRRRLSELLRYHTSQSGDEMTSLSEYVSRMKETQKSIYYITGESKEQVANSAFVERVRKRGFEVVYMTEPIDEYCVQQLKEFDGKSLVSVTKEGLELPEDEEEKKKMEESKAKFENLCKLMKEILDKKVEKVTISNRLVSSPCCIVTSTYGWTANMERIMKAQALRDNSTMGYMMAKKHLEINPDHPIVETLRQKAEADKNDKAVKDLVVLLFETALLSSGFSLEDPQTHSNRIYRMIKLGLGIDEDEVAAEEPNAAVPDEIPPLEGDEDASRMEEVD

| SMILES | IC50 |
| --- | --- |
| CONC(=O)c1cc2c(-c3ccc(Cl)cc3Cl)nc(N)nc2s1 [Example 14] | < 10 µM |
| CCONC(=O)c1cc2c(-c3ccc(Cl)cc3Cl)nc(N)nc2s1 [Example 15] | < 10 µM |
| CNNC(=O)c1cc2c(-c3ccc(Cl)cc3Cl)nc(N)nc2s1 [Example 16] | < 10 µM |
| CCCNC(=O)c1ccc(C)c(-c2nc(N)nc3sc(C(=O)NOC)cc23)c1 [Example 17] | < 10 µM |

same assay, conditions: activity range stated in each example; read-out: activity in the fluorescence polarization assay

| SMILES | IC50 |
| --- | --- |
| Nc1nc(-c2ccc(Cl)cc2Cl)c2cc(C(=O)O)sc2n1 [Example 1, 2-Amino-4-(2,4-dichloro-phenyl)-thieno[2,3-d]pyrimidine-6-carboxylic acid] | < 10 µM |
| Cc1ccc(-c2nc(N)nc3sc(C(=O)O)cc23)c(C)c1 [Example 2, 2-Amino-4-(2,4-dimethyl-phenyl)-thieno[2,3-d]pyrimidine-6-carboxylic acid] | > 10 µM |
| CC(C)(O)c1cc2c(-c3ccc(Cl)cc3Cl)nc(N)nc2s1 [Example 3, 2-[2-Amino-4-(2,4-dichloro-phenyl)-thieno[2,3-d]pyrimidin-6-yl]-propan-2-ol] | > 10 µM |
| CCC(O)(CC)c1cc2c(-c3ccc(Cl)cc3Cl)nc(N)nc2s1 [Example 4, 3-[2-Amino-4-(2,4-dichloro-phenyl)-thieno[2,3-d]pyrimidin-6-yl]-pentan-3-ol] | < 10 µM |
| Nc1nc(-c2ccc(Cl)cc2Cl)c2cc(C(O)(c3ccccc3)c3ccccc3)sc2n1 [Example 5, [2-Amino-4-(2,4-dichloro-phenyl)-thieno[2,3-d]pyrimidin-6-yl]-diphenyl-methanol] | > 10 µM |
| Nc1nc(-c2ccc(Cl)cc2Cl)c2cc(CO)sc2n1 [Example 6, [2-Amino-4-(2,4-dichloro-phenyl)-thieno[2,3-d]pyrimidin-6-yl]methanol] | < 10 µM |
| Cc1ccc(-c2nc(N)nc3sc(C#N)cc23)c(C)c1 [Example 7, 2-Amino-4-(2,4-dimethylphenyl)-thieno[2,3-d]pyrimidine-6-carbonitrile] | < 10 µM |
| CCC(=O)c1cc2c(-c3ccc(Cl)cc3Cl)nc(N)nc2s1 [Example 8, 1-[2-Amino-4-(2,4-dichloro-phenyl)-thieno[2,3-d]pyrimidine-6-yl]-propan-1-one] | < 10 µM |
| Nc1nc(-c2ccc(Cl)cc2Cl)c2cc(C(=O)c3ccccc3)sc2n1 [Example 9, [2-Amino-4-(2,4-dichloro-phenyl)-thieno[2,3-d]pyrimidine-6-yl]-phenyl-methanone] | < 10 µM |
| Cc1ccc(-c2nc(N)nc3sc(C4=NCCN4)cc23)c(C)c1 [Example 11, 6-(4,5-Dihydro-1H-imidazol-2-yl)-4-(2,4-dimethyl-phenyl)-thieno[2,3-d]pyrimidin-2-ylamine] | < 10 µM |
| CN1CCN(NC(=O)c2cc3c(-c4ccc(Cl)cc4Cl)nc(N)nc3s2)CC1 [Example 12, 2-Amino-4-(2,4-dichloro-phenyl)-thieno[2,3-d]pyrimidine-6-carboxylic acid (4-methyl-piperazin-1-yl) amide] | < 10 µM |
| Nc1nc(-c2ccc(Cl)cc2Cl)c2cc(C(=O)Nn3cnnc3)sc2n1 [Example 13, 2-Amino-4-(2,4-dichloro-phenyl)-thieno[2,3-d]pyrimidine-6-carboxylic acid [1,2,4]triazol-4-ylamide] | < 10 µM |
| CCCNCc1cc2c(-c3ccc(C)cc3C)nc(N)nc2s1 [Example 18, 4-(2,4-dimethyl-phenyl)-6-propylaminomethyl-thieno[2,3-d]pyrimidin-2-ylamine] | < 10 µM |
| Cc1cc(-c2cc3c(-c4ccc(Cl)cc4Cl)nc(N)nc3s2)[nH]n1 [Example 19, 4-(2,4-Dichloro-phenyl)-6-(5-methyl-2H-pyrazol-3-yl)-thieno[2,3-d]pyrimidin-2-ylamine] | < 10 µM |
| Cc1cn[nH]c1-c1cc2c(-c3ccc(Cl)cc3Cl)nc(N)nc2s1 [Example 20, 4-(2,4-Dichloro-phenyl)-6-(4-methyl-2H-pyrazol-3-yl)-thieno[2,3-d]pyrimidin-2-ylamine] | < 10 µM |
| Nc1nc(-c2ccc(Cl)cc2Cl)c2cc(-c3ccc[nH]3)sc2n1 [Example 21, 4-(2,4-Dichloro-phenyl)-6-(1H-pyrrol-2-yl)-thieno[2,3-d]pyrimidin-2-ylamine] | < 10 µM |

| SMILES | IC50 |
| --- | --- |
| CC(=O)Nc1nc(C)c(-c2cc3c(-c4ccc(Cl)cc4Cl)nc(N)nc3s2)[nH]1 [Example 22, N-{5-[2-Amino-4-(2,4-dichloro-phenyl)-thieno[2,3-d]pyrimidin-6-yl]-4-methyl-1H-imidazol-2-yl}-acetamide] | < 10 µM |
| Nc1nc(-c2ccc(Cl)cc2Cl)c2cc(-c3cnc[nH]3)sc2n1 [Example 24, 4-(2,4-Dichloro-phenyl)-6-(3H-imidazol-4-yl)-thieno[2,3-d]pyrimidin-2-ylamine] | < 10 µM |
| NCc1cc2c(-c3ccc(Cl)cc3Cl)nc(N)nc2s1 [Example 25, 6-Aminomethyl-4-(2,4-dichloro-phenyl)-thieno[2,3-d]pyrimidin-2-ylamine] | < 10 µM |
| CC(=O)NCc1cc2c(-c3ccc(Cl)cc3Cl)nc(N)nc2s1 [Example 26, N-[2-Amino-4-(2,4-dichloro-phenyl)-thieno[2,3-d]pyrimidin-6-ylmethyl]-acetamide] | < 10 µM |
| Cc1ccc(-c2nc(N)nc3sccc23)c(C)c1 [Example 27, 4-(2,4-Dimethyl-phenyl)-thieno[2,3-d]pyrimidine-2-ylamine] | < 10 µM |
| N#Cc1cc2c(-c3cc(OCc4ccccc4)c(Cl)cc3Cl)nc(N)nc2s1 [Example 28, 2-amino-4-(5-benzyloxy-2,4-dichloro-phenyl)-thieno[2,3-d]pyrimidine-6-carbonitrile] | < 10 µM |
| CCN(CC)CCOc1cc(-c2nc(N)nc3sc(C#N)cc23)c(Cl)cc1Cl [Example 29, 2-Amino-4-[2,4-dichloro-5-(diethylamino-ethoxy)-phenyl]-thieno[2,3-d]pyrimidine-6-carbonitrile] | < 10 µM |
| CCN(CC)CCOc1cc(-c2nc(N)nc3sc(/C(N)=N/O)cc23)c(Cl)cc1Cl [Example 30, 2-Amino-4-[2,4-dichloro-5-(2-diethylamino-ethoxy)-phenyl]-N-hydroxy-thieno[2,3-d]pyrimidine-6-carboxamidine] | < 10 µM |
| CCN(CC)CCOc1cc(-c2nc(N)nc3sc(C4=NCCN4)cc23)c(Cl)cc1Cl [Example 31, 4-[2,4-dichloro-5-(2-diethylamino-ethoxy)-phenyl]-6-(4,5-dihydro-1H-imidazol-2-yl)-thieno[2,3-d]pyrimidin-2-ylamine] | < 10 µM |
| CCN(CC)CCOc1cc(-c2nc(N)nc3sc(CO)cc23)c(Cl)cc1Cl [Example 32, {2-amino-4-[2,4-dichloro-5-(2-diethylamino-ethoxy)-phenyl]-thieno[2,3-d]pyrimidin-6-yl}-methanol] | < 10 µM |
| CCN(CC)CCOc1cc(-c2nc(N)nc3sc(C=O)cc23)c(Cl)cc1Cl [Example 33, 2-amino-4-[2,4-dicholoro-5-(2-diethylamino-ethoxy)-phenyl]thieno[2,3-d]pyrimidine-6-carbaldehyde] | < 10 µM |
| CCN(CC)CCOc1cc(-c2nc(N)nc3sc(/C=C/C(C)=O)cc23)c(Cl)cc1Cl [Example 34, 4-{2-Amino-4-[2,4-dicholoro-5-(2-diethylamino-ethoxy)-phenyl]thieno[2,3-d]pyrimidine-6-yl}-but-3-en-2-one] | < 10 µM |
| CCN(CC)CCOc1cc(-c2nc(N)nc3sc(-c4cc(C)n[nH]4)cc23)c(Cl)cc1Cl [Example 35, 4-[2,4-dicholoro-5-(2-diethylamino-ethoxy)-phenyl]-6-(5-methyl-2H-pyrazol-3-yl)-thieno[2,3-d]pyrimidine-2-ylamine] | < 10 µM |
| CCN(CC)CCOc1cc(-c2nc(N)nc3sc(C(=O)O)cc23)c(Cl)cc1Cl [Example 36, 2-Amino-4-[2,4-dichloro-5-(2-diethylamino-ethoxy)-phenyl]-thieno[2,3-d]pyrimidine-6-carboxylic acid] | < 10 µM |
| Nc1nc(-c2cc(OCc3ccccc3)c(Cl)cc2Cl)c2cc(C(=O)O)sc2n1 [Example 37, 2-Amino-4-[5-benzyloxy-2,4-dichloro-phenyl]-thieno[2,3-d]pyrimidine-6-carboxylic acid] | < 10 µM |
